Consider 1 compound from patent US9199985B2, “Compounds and methods for treatment of hypertension” (Medivation Technologies, Inc., priority 2011, dated 2015).

The conditions of this assay: conscious rabbits, intravenous, dose regimen identical to test compound; positive control.

Procedure: Four adult New Zealand White rabbits of both sexes are chosen for these studies. […] The conscious rabbits are implanted with an intravenous catheter in marginal ear vein or by centrally by intracisternal catheter interfaced to a pressure transducer connected to a suitable recorder. To unveil peripheral effects of test compound, two sets of acute studies are conducted in rabbits. In the first set of studies, test compound is dosed to rabbit intravenously for a dose-response study with cumulative doses starting 0 (Ringer's Lock solution as a vehicle), 0.1, 0.3, 1, 3.2 and 10 mg/kg where each dose is tested on a separate day. A single intravenous bolus dose at 3 mg/kg is given and a time-course study is conducted in the second set of studies. Systolic, diastolic, mean and diastolic blood pressures are recorded in both the studies. Data collections are made for 3 hours in the second set of studies. Heart rate (HR) is derived electronically using an algorithm to determine HR from pulse interval. In a separate set of studies, Clonidine (positive control) is tested where all experimental procedures including dose-regimen are identical to that of the studies with test compound.

With `Clc1cccc(Cl)c1N=C1NCCN1` [Clonidine], the “maximum drop of arterial blood pressure” value is recorded as −6 mmHg.
